Assay results from US7276490B1, “Medicinal compositions containing prostacylin synthase gene” (priority 2000, dated 2007).
Each block holds one compound with its values, some of them ahead of it.

How the values were obtained:
[1] = system: HEK-293 cells; test: Apoptosis assay: X-Gal staining of β-galactosidase co-transfected cells, apoptotic morphology; assay type: cell-based, human; conditions: for effect of oligonucleotide on prostacyclin-mediated apoptosis: HEK-293, HVJ-liposome method; for induction/enhancement of apoptosis by treatment with the agent: various concentrations (1, 10, 100 μM) in serum-free medium, cells expressing β-galactosidase and PGISwt or PGISC441A
Experimental: Cells were transfected with 1.0 μg of β-galactosidase expression vector using LipofectAMINE. After a fixed time, the cells were stained with X-Gal to evaluate the cells for apoptotic morphology. Apoptosis was monitored with ApoAlert caspase assay kit using Ac-DEVD-AFC substrate (Clontech). The activity was determined by using lysate pretreated with. Ac-DEVD-CHO as a control according to the supplier's instructions. The caspase activity is defined as a ratio between the caspase activity of a sample and that of lysate prepared from HEK-293 cells mock-transfected with a control plasmid.
To strictly ascertain the relationship between the expression of PGIS and apoptosis, HEK-293 cells were co-transfected with two types of expression constructs for human PGISwt and β-galactosidase. Because normal HEK-293 cells have flat morphology, it is easy to assess the cells for apoptotic changes characterized by membrane vesicle formation and cell body shrinkage. After incubation for a predetermined time following transfection, cells were stained with X-gal for β-galactosidase activity to identify cells containing the transgenes and then assessed for the apoptotic morphology. […] In HEK-293 cells, apoptosis was induced only by the expression of PGISwt without the presence of co-expression of COX-2 (FIGS. 4a and 5). The co-expression of COX-2 with PGISwt increased the number of apoptotic cells (16%). […] The level of 6-keto-PGF1α released into culture medium was correlated with the frequency of apoptosis (FIG. 6). […] Neither co-expression of PGISC441A and COX-2 nor further addition of arachidonic acid gave influence on the production 6-keto-PGF1α and morphological changes (FIGS. 5 and 6). These findings clearly indicate that prostacyclin produced by active PGIS participates in the process of apoptosis.

[2] = system: HEK-293 cells; test: as above; assay type: cell-based, human; conditions: HEK-293, HVJ-liposome method
[3] = system: PPAR-δ; test: Immunoblot of PPAR-δ after oligonucleotide transfection (HVJ-liposome method); assay type: cell-based, human; conditions: after 48 hours
Description: A lysate prepared from cells transfected with the PPAR-δ antisense oligonucleotide (AS) was immuno-blotted using an anti-PPAR-δ monoclonal antibody; a sense oligonucleotide (S) was used as a control.
dS, which corresponds to human PPAR-δ cDNA sense sequence: 5′-CTCGGTGACTTATCCTGTG-3′ (SEQ ID NO: 3); dAS, which corresponds to human PPAR-δ cDNA antisense sequence: 5′-TCCTCTTTCTCCTCCTCTT-3′ (SEQ ID NO: 4); aS, which corresponds to human PPAR-α cDNA sense sequence: 5′-CTCGGTGACTTATCCTGTG-3′ (SEQ ID NO: 5); and aAS, which corresponds to human PPAR-α cDNA antisense sequence: 5′-CACAGGATAAGTCACCGAG-3′ (SEQ ID NO: 6). These oligonucleotides were transfected into cells by HVJ-liposome method. Each oligonucleotide (22 μg) was combined with a nuclear protein and high mobility group (HMG)-1. HVJ-liposome was prepared by combining dry lipid (phosphatidyl serine/phosphatidyl choline/cholesterol (1:4.8:2 w/w/w)) with ultraviolet light-inactivated HVJ virus (viruses). After incubation and centrifugation with a sucrose-density gradient, the top layer was collected for transfection. 48 hours after transfection, cells in which the expression of endogenous PPAR-δ had been suppressed were used in PPREx3-luciferase assay and apoptosis assay.

[4] = system: PPAR; test: PPREx3-luciferase assay in HEK-293 cells; assay type: cell-based, human
Description: The sense oligonucleotide […] CTC (SEQ ID NO: 7) and antisense oligonucleotide […] A (which contains three copies of PPRE; SEQ ID NO: 8) were synthesized and annealed together; the resulting double-stranded DNA was subcloned into PGL3-promoter vector (Promega) at the MluI-XhoI site. PPREx3-luciferase reporter vector and β-galactosidase expression vector were co-transfected into HEK-293 cells using LipofectAMINE. The activity of β-galactosidase was normalized with absorbance at 405 nm.

[5] = system: cAMP; test: Intracellular level of cAMP accumulated in transfected cells; assay type: cell-based, human; conditions: Iloprost at various concentrations, serum-free medium
Experimental: FIG. 8 illustrates a diagram showing the intracellular level of cAMP accumulated in cells in serum-free medium containing Iloprost at the concentrations indicated (0, 1, 10, or 100 μM). The cells were transfected with expression plasmids for PGISwt, PGISC441A, or a mock control expression plasmid and β-galactosidase expression plasmid. After 17 hours, the medium was changed with serum-free medium containing Iloprost at various concentrations (0, 1, 10, or 100 μm). All results were obtained from three sets of experiments (n=3) and are presented as mean±S.D.

[6] = system: HEK-293 cells; test: Distribution of 3H-Iloprost in membrane, cytosol and nuclear fractions; assay type: in vitro ADME, human; conditions: 100 μM 3H-Iloprost, 24 hours
Experimental: FIG. 14 is a diagram showing the influence of the expression of PGIS on PPAR activation. The permeability of Iloprost was evaluated by using ^3H-Iloprost. HEK-293 cells were cultured in DMEM containing 100 μM ^3H-Iloprost for 24 hours. Cell membrane, cytosol, and nuclear fractions were prepared from the cells, and then the distribution of ^3H-Iloprost was determined using the fractions. The results were obtained from three sets of experiments (n=3) and are presented as mean±S.D.

[7] = system: recombinant PPAR; conditions: added to medium; cited from earlier work
[8] = system: HEK-293 cells; test: Double-staining with anti-PGIS antibody and Hoechst 33258 (chromatin condensation); assay type: cell-based, human; conditions: 100 μM; HEK-293 cells expressing PGIS; data not shown
Experimental: Cultured monolayer cells of human fetal kidney-derived HEK-293 cell line (ATCC CRL-1573) were harvested and plated in Dulbecco's modified Eagle's medium containing 10% bovine fetal serum (FBS), 100 U/ml penicillin, and […] streptomycin (3×10^5 cells/60-mm dish). 24 hours after incubation, the cells were transfected with 3 μg of any one of PGISwt (described below), PGISC441A (described below), or control vector pCMV7 (generous gift from Texas University; Andersson, S. et al., J. Biol. Chem., 264, 8222-8229 (1989): this can be replaced with pcDNA3 (Invitrogen; catalogue number: #A-150228)) and […] of pvA (plasmid encoding adenovirus-associated RNA1) using LipofectAMINE (Gibco-BRL). 5 hours after transfection, the cells were rinsed twice with phosphate-buffered physiological saline (PBS), and the fresh medium was added thereto. After gene transfer, the cells were cultured for 48 to 60 hours in total. Then, the cells were rinsed with PBS, and fixed with 3.7% formaldehyde for 10 minutes. The cells fixed were washed three times with PBS, and then incubated with the anti-PGIS antibody P4 for 2 hours. After being washed three times with PBS containing 2% FBS, the cells were incubated with anti-rabbit Ig-Texas Red at 37° C. for 1 hour and stained with […] Hoechst 33258 at room temperature for 15 minutes.

Compound: 5′-CACAGGATAAGTCACCGAG-3′ (listed as DNA, chemistry not given here) [antisense oligonucleotide PPAR-α]
- effect of oligonucleotide on prostacyclin-mediated apoptosis [1]: apoptosis was not inhibited
- changes in the oligonucleotide-treated cells (viability, morphology) [2]: cell viability declined

Compound: 5′-CTCGGTGACTTATCCTGTG-3′ (listed as DNA, chemistry not given here) [PPAR-α sense oligonucleotide]
- changes in the oligonucleotide-treated cells (viability, morphology) [2]: no marked changes

Compound: 5′-TCCTCTTTCTCCTCCTCTT-3′ (listed as DNA, chemistry not given here) [PPAR-δ antisense oligonucleotide]
- production of PPAR-δ protein [3]: suppressed
- activity of luciferase co-expressed with PGISwt in oligonucleotide-treated cells ([4]; HEK-293): significantly decreased
- effect of oligonucleotide on prostacyclin-mediated apoptosis [1]: significantly blocked
- changes in the oligonucleotide-treated cells (viability, morphology) [2]: normal morphology
- number of cells after oligonucleotide treatment [2]: increased

Compound: CC1CNCCN1S(=O)(=O)c1cccc2cnccc12 (centres unmarked) [H-7]
- effect on prostacyclin-mediated apoptosis ([1]; H-7 1, 10, 100 μM in serum-free medium, FIG. 10): did not block but enhanced

- Iloprost taken up by HEK-293 cells [6]: very little
- share of the Iloprost incorporated that is localized on cell membrane [6]: > 99%
Compound: CC#CCC(C)[C@H](O)/C=C/[C@@H]1[C@H]2C/C(=C/CCCC(=O)O)C[C@H]2C[C@H]1O (some centres unmarked) [Iloprost]
- intracellular cAMP [5]: accumulated
- activity of PPRE-luciferase on treatment ([4]; 1 to 100 μM added to medium, endogenous PPAR): could not increase
- induction/enhancement of apoptosis by treatment with the agent [1]: apoptosis was not induced
- activation of recombinant PPAR overexpressed in CV-1 cells [7]: results in activation

Compound: CCCCC[C@H](O)/C=C/[C@@H]1[C@@H](C/C=C\CCCC(=O)O)[C@H]2CO[C@@H]1C2 [U46619]
- Hoechst 33258-positive cells [8]: 32%

Compound: CCCCC/C=C\C/C=C\C/C=C\C/C=C\CCCC(=O)O [arachidonic acid]
- apoptosis on addition to the medium ([1]; HEK-293 cells expressing both PGISwt and COX-2): induction of apoptosis in almost all the cells

Compound: CC(=O)Oc1ccccc1C(=O)O [aspirin]
- Hoechst 33258-positive cells [8]: 48%

Compound: CCCC(=O)Nc1ncnc2c1ncn2[C@@H]1O[C@@H]2COP(=O)(O)O[C@H]2[C@H]1OC(=O)CCC [dbcAMP, dibutyryl-cAMP]
- induction/enhancement of apoptosis by treatment with the agent [1]: apoptosis was not enhanced

Compound: CCCCC[C@H](O)/C=C/[C@@H]1[C@H]2C/C(=C/CCCC(=O)O)O[C@H]2C[C@H]1O [prostacyclin]
- activation of recombinant PPAR overexpressed in CV-1 cells [7]: could not activate
